# Columns and labels:
# [1] = test system: human colon cancer SW480 cell lines; assay: In-vivo efficacy in SW480 CDX models; design: species or system mouse; settings: 5 mg/kg, i.v., QW*2, SW480 CDX
# Text: (§1) To verify the in-vivo efficacy of the anti-human cMet ADC drugs and evaluate the anti-tumor effects of the tested drugs in female Balb/c Nude mouse models subjected to subcutaneous xenografts, 5-6 week old female Balb/c Nude mice (Vital River) are purchased, human non-small cell lung cancer NCI-H358 cells that have grown to the logarithmic growth phase are digested with EDTA and then resuspended with PBS, each mouse is subcutaneously inoculated with 5*10^6 cells, and when the tumor grows to a size of […], intravenous administration is performed once a week with 1 mg/kg or 3 mg/kg each time.
# A similar method is used to evaluate the anti-tumor effects of anti-cMet ADC test drugs in female BALB/c nude mouse animal models subjected to subcutaneous xenografts of human colon cancer SW480 cell lines.
# NCI-H716 cells [2] = assay: Flow cell affinity of ADCs, NCI-H716; format: binding, human; settings: flow cytometry
# [3] = test system: human colorectal adenocarcinoma NCI-H716 cell lines; assay: In-vivo efficacy in NCI-H716 CDX models; design: species or system mouse; settings: i.v., QW*3, NCI-H716 CDX
# Text: as §1
# A similar method is used to evaluate the anti-tumor effects of cMet ADC test drugs in female BALB/c nude mouse animal models subjected to subcutaneous xenografts of human colorectal adenocarcinoma NCI-H716 cell lines.
# SW480 cells = assay: In-vitro killing activity Test 1 (CCK8), SW480; format: cell-based, human; settings: 7 days, read-out: EC50 of ADC killing (nM) SW480
# Text: (§2) Tumor cells in a good growth status are collected by digestion and centrifugation, SW480 (purchased from ATCC, Cat. No. CCL-228), NCI-H358 (purchased from ATCC, Cat. No. CRL-5807), LS1034 cells (Nanjing Cobioer Biosciences Co., Ltd., Cat. No. CBP60013), NCI-H716 (purchased from ATCC, Cat. No. CCL-251) cells are directly collected by centrifugation, the foregoing cells are all resuspended with RPMI 1640+5% FBS+Ps, and are counted, and 5000 (LS1034 and NCI-H716) or 3000 (SW480 and NCI-H358) cells are plated in each well in a volume of 100 uL; ADCs to be tested are diluted separately with resuspension media corresponding to the foregoing 3 types of cells, starting at 300 µg/mL ([…]) for 3-fold dilution with 11 concentration points, and added into a plate with 100 µL/well, to make the ADCs have a final concentration of 150 µg/mL, for incubation at 37° C. for 5 days (LS1034 and NCI-H358) or 7 days (NCI-H716 and SW480); after the incubation is completed, CCK8 is added with 20 µL/well, for a reaction for 1-3 hours; and values are read out at 450 nm by a microplate reader and imported into Graphpad Prism for curve-fitting.
# NCI-H716 cells [4] = assay: In-vitro killing activity Test 1 (CCK8), NCI-H716; format: cell-based, human; settings: 7 days, read-out: EC50 of ADC killing (nM) NCI-H716
# Text: as §2
# [5] = test system: human non-small cell lung cancer NCI-H358 cells; assay: In-vivo efficacy in NCI-H358 CDX models (Test 1); design: species or system mouse; settings: 1 mg/kg, i.v., QW*3, NCI-H358 CDX
# Text: as §1
# NCI-H358 cells [6] = assay: In-vitro killing activity Test 1 (CCK8), NCI-H358; format: cell-based, human; settings: 5 days, read-out: EC50 of ADC killing (nM) NCI-H358
# Text: as §2
# NCI-H69 cells = assay: Flow cell affinity of ADCs, NCI-H69; format: binding, human; settings: flow cytometry
# h.cMet-ECD-His [7] = target: T1, h.cMet-ECD-His (Homo sapiens, UniProt P08581); assay: ELISA protein affinity of cMET antibodies before and after conjugating into ADCs; format: binding
# T1 construct: a human cMet ectodomain recombinant protein (Human HGF R/c-MET Protein, His Tag); purchased Acrobiosystems Co., Ltd. / ACRO Biosystems MET-H5227
# T1 sequence (P08581 25-932 limits assumed): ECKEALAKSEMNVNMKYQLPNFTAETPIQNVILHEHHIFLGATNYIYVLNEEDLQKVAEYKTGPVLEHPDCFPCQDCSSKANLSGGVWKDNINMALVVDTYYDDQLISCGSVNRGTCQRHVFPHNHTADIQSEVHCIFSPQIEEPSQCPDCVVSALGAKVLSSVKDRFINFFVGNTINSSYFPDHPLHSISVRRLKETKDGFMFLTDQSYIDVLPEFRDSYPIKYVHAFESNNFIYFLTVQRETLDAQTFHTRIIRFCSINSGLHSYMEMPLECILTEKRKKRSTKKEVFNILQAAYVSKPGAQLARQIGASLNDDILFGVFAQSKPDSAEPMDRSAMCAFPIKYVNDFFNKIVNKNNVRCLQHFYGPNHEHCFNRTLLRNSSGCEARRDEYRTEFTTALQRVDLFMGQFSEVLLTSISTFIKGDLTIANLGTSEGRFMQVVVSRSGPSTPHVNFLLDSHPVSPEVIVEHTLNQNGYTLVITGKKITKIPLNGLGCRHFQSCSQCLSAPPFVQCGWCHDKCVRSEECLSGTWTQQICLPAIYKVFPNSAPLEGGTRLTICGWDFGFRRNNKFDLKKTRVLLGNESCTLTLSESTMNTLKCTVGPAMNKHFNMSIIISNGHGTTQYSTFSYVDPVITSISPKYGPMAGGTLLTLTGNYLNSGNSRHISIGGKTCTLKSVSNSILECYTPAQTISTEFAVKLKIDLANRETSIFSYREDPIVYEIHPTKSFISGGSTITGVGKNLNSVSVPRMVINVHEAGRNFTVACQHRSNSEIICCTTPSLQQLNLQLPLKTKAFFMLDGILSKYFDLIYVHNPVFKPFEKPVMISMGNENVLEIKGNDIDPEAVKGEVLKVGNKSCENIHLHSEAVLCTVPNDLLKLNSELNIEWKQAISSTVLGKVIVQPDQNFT
# Description: Proteins anti-His-Rabbit Fc are coated with the CBS to […], and are blocked with 2% BSA (in PBS) at 37° C. for 2 hours, h.cMet-ECD-His of […] is added for incubation at 37° C. for 2 hours, after 2 hours, antibodies to be tested or ADCs that are gradiently diluted (starting at […] for 3-fold dilution with 11 concentration points) are added for incubation at 37° C. for 2 hours, after 2 hours, HRP-labeled anti-human specific secondary antibodies (Jackson, 115-035-164) are added for incubation at 37° C. for 1 hour, a TMB substrate is added for color development, and after the color development is stopped using HCl of 2M, final products are added into a machine to read out absorbance values at […].
# NCI-H358 cells [8] = assay: Flow cell affinity of ADCs, NCI-H358; format: binding, human; settings: flow cytometry
# LS1034 cells [9] = assay: In-vitro killing activity Test 1 (CCK8), LS1034; format: cell-based, human; settings: 5 days, read-out: EC50 of ADC killing (nM) LS1034
# Text: as §2
# LS1034 cells [10] = assay: Flow cell affinity of ADCs, LS1034; format: binding, human; settings: flow cytometry
# MKN45 cells [11] = assay: Endocytic activity on MKN45 cells; format: cell-based, human; settings: 10 μg/mL, 37° C.
# Description: MKN45 cells are collected by trypsin digestion and centrifugation, incubated with humanized antibodies to be detected of a concentration of 10 μg/mL at 4° C. for 1 hour, and washed 3 times with the PBS, the cells are resuspended with DMEM+10% FBS that has been pre-warmed at 37° C., […], after 3 times of washing with a pre-cooled PBS, 1.2 uL of anti-human APC fluorescent secondary antibodies are added for incubation at 4° C. for 0.5 hours, and after three times of washing with the PBS, the cells are resuspended and added into a machine. Endocytosis rates are calculated according to the following formula: endocytosis rate (%)= ? 1−(an average fluorescence value of a test sample at this time point−an average fluorescence value of a negative control sample at this time point)/(an average fluorescence value of the test sample at 0 hour−an average fluorescence value of the negative control sample at 0 hour) ? * 100.
# h.cMet (cMet-ECD-his) = target: T2, h.cMet (cMet-ECD-his) (Homo sapiens, UniProt P08581); assay: ELISA affinity of humanized antibodies to human cMet; format: binding; settings: cMet-ECD-his coated
# T2 construct: a human cMet ectodomain recombinant protein (Human HGF R/c-MET Protein, His Tag); purchased Acrobiosystems Co., Ltd. / ACRO Biosystems MET-H5227
# T2 sequence (P08581 25-932 limits assumed): as above
# Text: […]
# h.cMet-ECD-His [12] = target: T1, h.cMet-ECD-His; assay: ForteBio dynamic affinity to h.cMet-ECD-His; format: binding; settings: ProA sensor
# Description: Dynamic affinities of the humanized antibodies are assayed through ForteBio. Experimental steps are as follows: 1. sensor preparation: taking out a ProA sensor, and pre-wetting the sensor with a PBST diluent (pH 7.4) for 10 min; 2. sample dilution: separately diluting antibodies that need to be solidified to 5 μg/ml, antigens h.cMet-ECD-His (Acrobiosystems Co., Ltd., Cat. No.: MET-H5227) starting at 500 nM for 2-fold dilution with 5 concentration points and a 0 concentration point set; 3. setting a program, putting a sensor plate and a sample plate away, starting the program, and the sensor being regenerated with a glycine solution of 20 mM (pH 1.7); 4. using Octet analysis software to analyse data.
# [13] = target: T3, HGF ligand on MKN45 cells (Homo sapiens, UniProt P08581); assay: FACS competition of humanized antibodies with HGF ligand on MKN45 cells; format: binding; settings: HGF-His-biotin 50 ng/ml, MKN45
# T3 construct: MKN45 cells expressing c-MET antigens; endogenous in cells; host or cells: MKN45
# T3 sequence (P08581 25-1390): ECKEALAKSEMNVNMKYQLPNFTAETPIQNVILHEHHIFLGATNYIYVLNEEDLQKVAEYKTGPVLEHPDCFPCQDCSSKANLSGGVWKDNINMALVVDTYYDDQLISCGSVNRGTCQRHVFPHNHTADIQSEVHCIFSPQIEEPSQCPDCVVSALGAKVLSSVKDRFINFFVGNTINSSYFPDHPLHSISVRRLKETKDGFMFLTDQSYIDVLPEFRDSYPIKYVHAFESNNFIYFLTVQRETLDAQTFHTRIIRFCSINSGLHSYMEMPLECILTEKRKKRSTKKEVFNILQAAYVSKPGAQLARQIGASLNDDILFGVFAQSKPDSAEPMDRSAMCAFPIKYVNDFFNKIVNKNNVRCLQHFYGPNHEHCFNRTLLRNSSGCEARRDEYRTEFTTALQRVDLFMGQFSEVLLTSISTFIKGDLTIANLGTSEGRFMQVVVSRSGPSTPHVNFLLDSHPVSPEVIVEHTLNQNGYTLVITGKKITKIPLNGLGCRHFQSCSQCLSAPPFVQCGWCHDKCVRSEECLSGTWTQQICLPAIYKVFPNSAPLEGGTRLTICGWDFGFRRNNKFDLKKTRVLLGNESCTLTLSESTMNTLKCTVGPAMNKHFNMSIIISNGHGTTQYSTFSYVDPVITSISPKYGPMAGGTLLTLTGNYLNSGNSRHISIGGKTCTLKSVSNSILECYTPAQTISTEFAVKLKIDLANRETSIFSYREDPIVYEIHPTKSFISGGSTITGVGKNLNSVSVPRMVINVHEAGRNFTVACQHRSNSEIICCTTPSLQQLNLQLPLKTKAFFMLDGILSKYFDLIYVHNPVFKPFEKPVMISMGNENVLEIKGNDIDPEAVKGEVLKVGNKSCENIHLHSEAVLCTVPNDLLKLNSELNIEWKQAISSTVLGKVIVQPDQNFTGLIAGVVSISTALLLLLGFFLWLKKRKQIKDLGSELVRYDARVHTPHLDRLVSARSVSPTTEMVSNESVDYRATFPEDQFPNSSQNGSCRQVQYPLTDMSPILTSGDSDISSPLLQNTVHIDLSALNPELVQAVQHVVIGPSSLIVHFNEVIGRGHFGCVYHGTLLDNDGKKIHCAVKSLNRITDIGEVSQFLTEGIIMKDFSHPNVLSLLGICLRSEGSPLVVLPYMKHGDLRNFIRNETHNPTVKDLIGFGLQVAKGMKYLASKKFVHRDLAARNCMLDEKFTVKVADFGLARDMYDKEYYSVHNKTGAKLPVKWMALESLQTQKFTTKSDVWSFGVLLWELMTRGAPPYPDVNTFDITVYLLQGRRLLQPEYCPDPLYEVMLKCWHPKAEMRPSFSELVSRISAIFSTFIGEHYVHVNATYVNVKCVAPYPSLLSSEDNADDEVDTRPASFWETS
# Description: (§3) Therefore, competitive actions of the humanized antibodies on ligand binding and actions of inhibiting HGF-induced ERK phosphorylation are detected.
# (§4) MKN45 cells are collected by trypsin digestion and centrifugation, and are washed three times with a pre-cooled PBS, the cells are resuspended with 1% BSA (in PBS), and are plated into a 96-well conical bottom plate with 2^10^5 cells (50 ul) per well, anti-cMet humanized antibodies are gradiently diluted with 1% BSA, starting at 15 μg/ml to a final concentration from 5 μg/ml with a 3-fold dilution gradient and 8 dilution points, 50 ul diluted antibodies are mixed well with the cells in the conical bottom plate, HGF-His-biotin (from Chengdu NB Biolab Co., Ltd.) is diluted with 1% BSA to 150 ng/ml, and is added into the well plate with 50 ul/well, to make a final concentration of ligands of 50 ng/ml, for incubation at 4° C. for 1 hour after fully mixing, after three times of washing with the pre-cooled PBS, 100 ul of 1% BSA (containing 1 uL anti-biotin PE fluorescent secondary antibodies, BioLegend, Cat. No. 405204) is added to each well for incubation at 4° C. for 0.5 hours, and after three times of washing with the pre-cooled PBS, the cells are resuspended and detected by a flow cytometer (Beckman, cytoflex).
# [14] = target: T4, (Homo sapiens, UniProt P08581); assay: as above; format: binding; settings: HGF-His-biotin 50 ng/ml
# T4 construct: MKN45 cells expressing c-MET antigens; endogenous in cells; host or cells: MKN45
# T4 sequence (P08581 25-1390): as above
# Description: as §3, §4
# MKN45 cells [15] = assay: Flow affinity of humanized antibodies to MKN45 cells; format: binding, human; settings: flow cytometry
# Description: MKN45 cells (Nanjing Cobioer Biosciences Co., Ltd., CBP60488) are collected by trypsin digestion and centrifugation, and are washed three times with a pre-cooled PBS, the cells are resuspended with 1% BSA (in the PBS), and are plated into a 96-well conical bottom plate with 2^10^5 cells (50 ul) per well, anti-cMet humanized antibodies to be tested are gradiently diluted with 1% BSA starting at 20 μg/ml with a 4-fold dilution gradient and 8 concentration points, 50 ul diluted antibodies are mixed well with the cells in the conical bottom plate for incubation at 4° C. for 1 hour, after three times of washing with the pre-cooled PBS, 100 ul of 1% BSA (containing 1 uL anti-human APC fluorescent secondary antibodies, BioLegend, Cat. No. 410712) is added to each well for incubation at 4° C. for 0.5 hours, and after three times of washing with the pre-cooled PBS, the cells are resuspended for detection by a flow cytometer (Beckman, cytoflex).
# [16] = test system: cynoMet (cyno.cMet-ECD-His); assay: ELISA affinity of humanized antibodies to cyno Met; format: binding; settings: cyno.cMet-ECD-His captured
# Text: […]
substance,measurement,setting,value
"ABT700-Vc-MMAE (DAR4): ADC of control antibody ABT700 conjugated to vc-MMAE (CAS No.: 646502-53-6), DAR value 4.0 [reference compound]",TGI (%) on Day 15,[1],15.06%
same,EC50,NCI-H716 cells [2],11.6 nM
same,NCI-H716 Maximum signal value,NCI-H716 cells [2],3737
same,TGI (%) on Day 14,[3]; 0.3 mg/kg,1.7%
same,TGI (%) on Day 14,[3]; 1 mg/kg,3.5%
same,EC50,SW480 cells,71.6 nM
same,EC50,NCI-H716 cells [4],288 nM
"ABT700-Vc-MMAE (DAR9.7): ADC of control antibody ABT700 conjugated to vc-MMAE (CAS No.: 646502-53-6), DAR value 9.7 [reference compound]",TGI (%) on Day 14,[5],84.6%
same,EC50,NCI-H358 cells [6],> 10000 nM
same,EC50,NCI-H69 cells,0.212 nM
same,NCI-H69 Maximum signal value,NCI-H69 cells,8214
same,EC50,h.cMet-ECD-His [7],2.432 µg/mL
same,EC50,NCI-H358 cells [8],0.917 nM
same,NCI-H358 Maximum signal value,NCI-H358 cells [8],32386
same,EC50,LS1034 cells [9],53.7 nM
same,EC50,LS1034 cells [10],0.852 nM
same,LS1034 Maximum signal value,LS1034 cells [10],8960
"ABT700: control anti-c-Met antibody with a sequence from KEGG, ID: D11307 [reference compound]",Endocytosis rate %,MKN45 cells [11]; 1 h,7.9%
same,Endocytosis rate %,MKN45 cells [11]; 2 h,19.2%
same,Endocytosis rate %,MKN45 cells [11]; 4 h,44.5%
same,h.cMet EC50,h.cMet (cMet-ECD-his),0.004148 µg/mL
same,EC50,h.cMet-ECD-His [7],0.005257 µg/mL
same,ka,h.cMet-ECD-His [12],169000 M⁻¹ s⁻¹
same,kdis,h.cMet-ECD-His [12],3.91e-07 s⁻¹
same,Maximum inhibition rate %,[13],75%
same,MKN45 IC50,[14],0.167 µg/mL
same,MKN45 EC50,MKN45 cells [15],0.1004 µg/mL
same,Maximum signal value,MKN45 cells [15]; MKN45,70415
same,cynoMet EC50,[16],0.1434 µg/mL

# Source: patent publication US20260216354A1, “ANTI-CMET ANTIBODY, ANTIBODY-DRUG CONJUGATE, AND PREPARATION METHOD THEREFOR AND USE THEREOF” (MEDILINK THERAPEUTICS (SUZHOU) CO., LTD., priority 2022, published 2026)
